The subject of one assay is biotinylated tubulin. The assay is described as follows: Colchicine competitive-binding assay. To be noted: at 10 μM concentration, 3H-colchicine; for binding rate (%) (colchicine competitive-binding): left column pair of Table 7; for Inhibition rate (%) (colchicine competitive-binding): right column pair of Table 7. As to the method:
The colchicine competitive-binding assay was done by using the Colchicine Site competitive Assay Kit (Cytoskeleton, Inc.), streptavidin-coated yttrium SPA beads(GE Healthcare, Inc.), and ^3H-colchicine(PerkinElmer, Inc.). Briefly, the binding mixture includes 1 μL^3H-labeled ligand (specific activity […]), and 1 μg biotinylated tubulin and 88 μg SPA beads in 200 μL assay buffer. The test compound and ^3H-labeled ligand were added before tubulin. After incubation at 37° C. for 2 hours, the SPA beads were allowed to settle down for 24 hours at room temperature, and scintillation counting was done on the TopCount Microplate Scintillation Counter.

A further assay has as its system KB cell. The assay is described as follows: MTS assay, growth inhibition of KB cells. It is filed as cell-based. To be noted: Homo sapiens, at 10 μM concentration, incubated for 72 h, read-out: Inhibition rate (%) (growth inhibition rate of MTS assay). As to the method: MTS assay was performed in determining the growth inhibition of cancer cells. MTS ((3-(4,5-dimethylthiazol-2-yl)-5-(3-carboxymethoxyphenyl)-2-(4-sulfophenyl)-2H-tetrazolium)), in the presence of phenazine methosulfate (PMS) and reductases, produces a formazan product that has an absorbance maximum at 490-500 nm. MTS assays (and closely related MTT assay) are commonly used to measure cell viabilities or survivals.
Briefly, KB/Hela, NCI-H460, A375, Colo205, HCT-116, U937, MCF-7, MDA-MB-231, A549, H1975 cells were seeded into 96-well plate at 4000, 4000, 2000, 2000, 2000 cells/well. After 24 h for attachment, test compound was added into each well and incubated for 72 h. A total of 20 μl of MTS reaction reagent containing the MTS (Promega, Madison, Wis.) and PMS in a ratio of 20:1 was added into each well to react with dehydrogenase enzyme in survival cells. After 3 h, the absorbance at 490 nm was monitored using Emax precision microplate reader (Molecular Devices, Sunnyvale, Calif.).
The growth inhibition rate of MTS assay at KB cell of these compounds (at 10 μM concentration) are list in Table 5.

Results on 13 molecules are retold here after US8883793B2, “Tubulin inhibitors and methods of using the same” (Development Center for Biotechnology, priority 2010, dated 2014).

Consider `O=C(CCc1ccc(F)cc1)Nc1ncc(Cc2ccc(F)cc2)s1` [Compound 12, N-[5-(4-Fluoro-benzyl)-thiazol-2-yl]-3-(4-fluoro-phenyl)-propionamide], for which the “binding rate (%) (colchicine competitive-binding)” value (“binding rate (%)” below) with biotinylated tubulin turned out to be 51.2%. The inhibition (commonly how much of the control response was suppressed) at 10 µM with KB cell was determined as 96%.

For the molecule `COc1ccc2cc(Cc3cnc(NC(=O)CCc4ccc(F)cc4)s3)ccc2c1` [Compound 13, 3-(4-Fluoro-phenyl)-N-[5-(6-methoxy-naphthalen-2-ylmethyl)-thiazol-2-yl]-propionamide], the “binding rate (%)” value in the assay on biotinylated tubulin is 60.0%. Besides, in the assay on KB cell, the inhibition at 10 µM was 94.6%.

Turning to `COc1cc(Cc2cnc(NC(=O)CCc3ccccc3)s2)cc(OC)c1OC` [Compound 49, 3-Phenyl-N-[5-(3,4,5-trimethoxy-benzyl)-thiazol-2-yl]-propionamide], the “binding rate (%)” value with biotinylated tubulin was 64.9%. Also, the inhibition at 10 µM in the assay with KB cell turned out to be 95.1%.

Take `COc1ccc(Cc2cnc(NC(=O)CCc3ccc(F)cc3)s2)c(OC)c1OC` [Compound 54, 3-(4-Fluoro-phenyl)-N-[5-(2,3,4-trimethoxy-benzyl)-thiazol-2-yl]-propionamide]: the “binding rate (%)” value in the assay with biotinylated tubulin was found to be 73.3%. Further, the inhibition at 10 µM in the assay with KB cell turned out to be 96.1%.

Consider `COc1ccc(Cc2cnc(NC(=O)CCc3ccc(C)o3)s2)c(OC)c1OC` [Compound 56, 3-(5-Methyl-furan-2-yl)-N-[5-(2,3,4-trimethoxy-benzyl)-thiazol-2-yl]-propionamide], for which the “binding rate (%)” value in the assay with biotinylated tubulin was 88.3%. Moreover, the inhibition at 10 µM in the assay with KB cell was 94.7%.

`Cc1nc(NC(=O)CCc2ccccc2)sc1-c1ccc(F)cc1` [Compound 59, N-[5-(4-Fluoro-phenyl)-4-methyl-thiazol-2-yl]-3-phenyl-propionamide]: the “binding rate (%)” value with biotinylated tubulin is 76.3%. Moreover, in the assay with KB cell, the inhibition at 10 µM was 93.5%.

As for `Cc1nc(NC(=O)CCc2ccccc2)sc1Cc1ccc2c(c1)OCO2` [Compound 60, N-(5-Benzo[1,3]dioxol-5-ylmethyl-4-methyl-thiazol-2-yl)-3-phenyl-propionamide], the “binding rate (%)” value in the assay on biotinylated tubulin is reported as 64.6%. In addition, the inhibition at 10 µM with KB cell was determined as 95.1%.

`Cc1nc(NC(=O)CCc2ccc(F)cc2)sc1Cc1ccc2c(c1)OCO2` [Compound 61, N-(5-Benzo[1,3]dioxol-5-ylmethyl-4-methyl-thiazol-2-yl)-3-(4-fluoro-phenyl)-propionamide]: in the assay with biotinylated tubulin, the “binding rate (%)” value came out at 57.9%. In addition, the inhibition at 10 µM in the assay with KB cell was found to be 90.9%.

On to `Cc1nc(NC(=O)CCc2cccnc2)sc1Cc1ccc2c(c1)OCO2` [Compound 62, N-(5-Benzo[1,3]dioxol-5-ylmethyl-4-methyl-thiazol-2-yl)-3-pyridin-3-yl-propionamide], for which the “binding rate (%)” value with biotinylated tubulin is given as 55.3%. Moreover, the inhibition at 10 µM in the assay on KB cell turned out to be 96%.

Regarding `COc1cccc(CCC(=O)Nc2nc(C)c(Cc3ccc4c(c3)OCO4)s2)c1` [Compound 63, N-(5-Benzo[1,3]dioxol-5-ylmethyl-4-methyl-thiazol-2-yl)-3-(3-methoxy-phenyl)-propionamide], the “binding rate (%)” value with biotinylated tubulin is listed as 63.3%. Besides, in the assay with KB cell, the inhibition at 10 µM was found to be 95.6%.

Take `Cc1ccc(CCC(=O)Nc2ncc(Oc3ccc(F)cc3)s2)o1` [Compound 64, N-[5-(4-Fluoro-phenoxy)-thiazol-2-yl]-3-(5-methyl-furan-2-yl)-propionamide]: the “binding rate (%)” value in the assay with biotinylated tubulin is given as 54.4%. The inhibition at 10 µM in the assay with KB cell amounted to 95.9%.

`O=C(CCc1ccccc1)Nc1ccc(Sc2ccccc2)cn1` [Compound 81, 3-Phenyl-N-(5-phenylsulfanyl-pyridin-2-yl)-propionamide]: the “Inhibition rate (%) (colchicine competitive-binding)” value with biotinylated tubulin is 70.0%. For the same molecule, the inhibition at 10 µM with KB cell is 95.1%.

`Cc1ccc(CCC(=O)Nc2ncc(-n3ccnc3)cc2C)o1` [Compound 87, N-(5-Imidazol-1-yl-3-methyl-pyridin-2-yl)-3-(5-methyl-furan-2-yl)-propionamide]: the “Inhibition rate (%) (colchicine competitive-binding)” value with biotinylated tubulin is listed as 54.6%. The inhibition at 10 µM with KB cell amounted to 93.9%.
